Measurements reported in PMC3356272, “An Analogue of the Antibiotic Teicoplanin Prevents Flavivirus Entry In Vitro” (PLoS ONE, 2012).

How the values were obtained:
DENV subgenomic replicon = assay: DENV replicon system; format: cell-based, dengue virus; conditions: BHK-Rep-Pac-LUC cells, luciferase at 72 hours
YFV-17D [1] = format: cell-based, yellow fever virus
[2] = tested on: uninfected host cell cultures; assay: Cell counting with a Coulter Counter; format: cell-based; conditions: 50 and 100 µM, cells counted with a Coulter Counter
DiD-labeled DENV = assay: Fusion assay with DiD-labeled DENV; format: cell-based, dengue virus; conditions: BS-C-1 cells; for membrane fusion activity of DENV, reference controls: NH4Cl 50 mM, chlorpromazine 60 µM
DENV-2 = assay: Virucidal assay; conditions: 50 µM, 1 h, 37°C, with or without RNase A
dengue reporter virus = format: cell-based
DENV-2 NGC [3] = assay: CPE-reduction assay; conditions: 25 and 12.5 µM, Vero-B cells, day 8 p.i.
DENV-2 NGC [4] = format: cell-based, dengue virus
YFV-17D [5] = format: cell-based, yellow fever virus; remark: listed apart in the source

Row | SMILES | replication of the DENV subgenomic replicon (DENV subgenomic replicon) | inhibition of viral replication (YFV-17D [1]) | protective activity against YFV (YFV-17D [1]) | cytostatic effects [2] | membrane fusion activity of DENV (DiD-labeled DENV; 20 min p.i. at 37°C, 6.25-25.0 µM) | direct virucidal activity (DENV-2) | inhibition of DENV infection (dengue reporter virus) | inhibition of viral replication and viral antigen expression (dengue reporter virus) | cytotoxic effects (P388D1 cells) | DENV-2-induced CPE formation (DENV-2 NGC [3]) | DENV E protein expression (DENV-2 NGC [4]) | YFV NS1 protein expression (YFV-17D [5]) | cytotoxicity (Vero-B cells) | viability of uninfected host cell cultures (Vero-B cells) | CC50 (Vero-B cells; green monkey) [µM] | membrane fusion activity of DENV, reference controls (DiD-labeled DENV)
1 | CC(C)(C)OC(=O)NC1C(=O)NC2Cc3ccc(c(Cl)c3)Oc3cc4cc(c3O)Oc3ccc(cc3Cl)C(O)C3NC(=O)C(NC(=O)C4NC(=O)C(NC2=O)c2cc(O)cc(c2)Oc2cc1ccc2O)c1ccc(O)c(c1)-c1c(O)cc(O)cc1C(C(=O)NC1C2CC4CC(C2)CC1C4)NC3=O (centres unmarked) [LCTA-949] | did not inhibit | nearly complete inhibition | most of the protective activity of LCTA-949 was already lost | some cytostatic effects | markedly impaired | does not destroy the viral particle | failed to efficiently inhibit | nearly complete inhibition | No cytotoxic effects | completely inhibited | completely inhibited | completely inhibited | did not prove cytotoxic | did not reduce viability | > 100 | 
2 | Cl.N [ammonium chloride] |  |  |  |  |  |  |  |  |  |  |  |  |  |  |  | efficiently reduced
3 | CN(C)CCCN1c2ccccc2Sc2ccc(Cl)cc21 [chlorpromazine] |  |  |  |  |  |  |  |  |  |  |  |  |  |  |  | efficiently reduced
